Measurements taken from patent US11167007B2, “FOXM1 modulators and uses thereof” (City of Hope, priority 2016, dated 2021).
“Also recorded” adds a separate entry of the source.

Assays:
AR [1] = assay: Androgen-responsive luciferase reporter assay in GT1-7 cells; assay type: cell-based, murine; conditions: for inhibition of AR transcriptional activity (luciferase): GT1-7 cells, treated overnight, FIG. 2A; for Fold Difference: GT1-7 luciferase
Description: Luciferase Reporter Assay. […] The following day, cells and drugs were distributed to 96-well plates. 24 hours later, luciferase activity was assessed by a dual luciferase assay kit (Promega) on the Tecan plate reader. Samples were run in quadruplicates and a Student's t test was performed to determine significance, where p<0.05 was considered significant.
In order to identify potential cell-type selective AR modulators, the FRET-based assay of AR conformation change was utilized. AR signaling is a complex process involving many steps in addition to ligand binding. One crucial step is the ligand-induced conformational change of AR, which brings the carboxy (C)- and amino (N)-termini of the receptor together. Full length AR with cyan fluorescent protein (CFP) or yellow fluorescent protein (YFP) fused to either end (CARY) produces a FRET signal upon AR conformation change (FIG. 1A). This produces an accurate and quantifiable read-out of AR activity. […] Cells were plated in 96 wells and treated with library compounds 24 hours prior to accessing conformational changes by FRET. […] Candidate hits were then further evaluated by dose response. […] In addition to FRET, AR transcriptional activity was also assessed in several cell lines by transfecting cells with a luciferase reporter driven by the human PSA promoter.

AR [2] = assay: Androgen-responsive luciferase reporter assay in C2C12 cells; assay type: cell-based, murine; conditions: treated overnight, FIG. 2A
Source text: (§1) Luciferase Reporter Assay. Cells were transfected using Lipofectamine Plus (Invitrogen) with a normalization plasmid (pRL-SV40, Promega) and an androgen responsive plasmid (MMTV-luciferase or PSA-luciferase) as described in Jones et al, ACS Chem Biol, 3(7):412-8 (2008), and, where indicated, with an shRNA plasmid targeting FOXM1 (adapted for mouse FOXM1 sequence targeting) a scrambled control shRNA plasmid, or ARQ24 or ARQ65 plasmids. Christensen et al, PLoS One, 8(1):e54556 (2013). The following day, cells and drugs were distributed to 96-well plates. 24 hours later, luciferase activity was assessed by a dual luciferase assay kit (Promega) on the Tecan plate reader. Samples were run in quadruplicates and a Student's t test was performed to determine significance, where p<0.05 was considered significant.
In order to identify potential cell-type selective AR modulators, the FRET-based assay of AR conformation change was utilized. AR signaling is a complex process involving many steps in addition to ligand binding. One crucial step is the ligand-induced conformational change of AR, which brings the carboxy (C)- and amino (N)-termini of the receptor together. Full length AR with cyan fluorescent protein (CFP) or yellow fluorescent protein (YFP) fused to either end (CARY) produces a FRET signal upon AR conformation change (FIG. 1A). This produces an accurate and quantifiable read-out of AR activity. Jones et al, ACS Chem Biol, 3(7):412-8 (2008). Because the interest was in the potential of neuron selective AR inhibitors for treatment of SBMA, the initial screen was carried out in CARY-transfected GT1-7 cells, which are a mouse model of hypothalamic neurons. Liposits et al, Endocrinology, 129(3):1575-83 (1991). Cells were plated in 96 wells and treated with library compounds 24 hours prior to accessing conformational changes by FRET. […] Candidate hits were then further evaluated by dose response. […] In addition to FRET, AR transcriptional activity was also assessed in several cell lines by transfecting cells with a luciferase reporter driven by the human PSA promoter. […]

AR [3] = target: T1, AR (Homo sapiens, UniProt P10275); assay: Androgen-responsive luciferase reporter assay in ReNcell CX neuronal cells; assay type: cell-based; parameters: endogenous in cells; host or cells: ReNcell CX; conditions: FIG. 2B
T1 sequence (P10275 1-920): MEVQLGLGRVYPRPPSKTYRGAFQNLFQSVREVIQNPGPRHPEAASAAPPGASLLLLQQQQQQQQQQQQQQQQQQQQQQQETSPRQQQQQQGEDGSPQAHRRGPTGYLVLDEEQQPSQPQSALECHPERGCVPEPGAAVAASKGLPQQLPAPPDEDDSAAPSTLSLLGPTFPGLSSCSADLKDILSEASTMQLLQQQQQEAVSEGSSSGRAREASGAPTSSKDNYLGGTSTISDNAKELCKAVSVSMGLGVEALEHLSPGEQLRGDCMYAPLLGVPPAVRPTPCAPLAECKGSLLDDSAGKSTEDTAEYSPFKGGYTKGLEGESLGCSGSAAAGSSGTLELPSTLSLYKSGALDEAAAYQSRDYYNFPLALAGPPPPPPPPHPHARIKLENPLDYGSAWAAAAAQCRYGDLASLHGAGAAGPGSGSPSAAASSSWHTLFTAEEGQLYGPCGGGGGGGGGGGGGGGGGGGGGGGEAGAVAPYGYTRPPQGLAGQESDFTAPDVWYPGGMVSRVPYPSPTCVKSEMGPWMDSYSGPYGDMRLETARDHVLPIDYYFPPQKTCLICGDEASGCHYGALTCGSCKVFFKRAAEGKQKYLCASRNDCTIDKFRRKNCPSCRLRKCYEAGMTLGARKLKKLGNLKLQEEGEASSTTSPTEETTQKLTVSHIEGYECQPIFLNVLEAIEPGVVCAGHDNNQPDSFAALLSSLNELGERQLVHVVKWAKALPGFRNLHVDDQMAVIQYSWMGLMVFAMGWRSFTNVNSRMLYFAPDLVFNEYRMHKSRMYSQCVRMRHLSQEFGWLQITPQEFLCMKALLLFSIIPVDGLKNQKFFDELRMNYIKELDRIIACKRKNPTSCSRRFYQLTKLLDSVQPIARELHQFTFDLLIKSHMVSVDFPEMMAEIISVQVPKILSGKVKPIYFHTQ
Source text: as §1
The ability of thiostrepton to inhibit AR activity in additional neuronal cells, including ReNcell CX cells PC12 cells, and in rat L6 skeletal muscle cells was examined (FIG. 2B). Donato et al, BMC Neurosci, 8:36 (2007); Yaffe, Proc Natl Acad Sci USA, 61(2):477-83 (1968).

Compound	inhibition of AR transcriptional activity (luciferase) (AR [1])	inhibition of AR transcriptional activity (luciferase) (AR [2])	Fold Difference (AR [1]; DHT - 100 nM thiostrepton, Control shRNA)	Fold Difference (AR [1]; DHT - 100 nM thiostrepton, FOXM1 shRNA)	Fold Difference (AR [1]; DHT-10 nM thiostrepton, Control shRNA)	Fold Difference (AR [1]; DHT-10 nM thiostrepton, FOXM1 shRNA)	potency of thiostrepton on AR activity after decreasing FOXM1 expression (AR [1]; FOXM1 shRNA vs control, GT1-7, FIG. 3B)	inhibition of AR activity (luciferase) (AR [3])
C=C(NC(=O)C(=C)NC(=O)c1csc(C2=N[C@@H]3c4csc(n4)[C@H]4NC(=O)c5csc(n5)[C@H]([C@](C)(O)[C@@H](C)O)NC(=O)[C@H]5CSC(=N5)/C(=C/C)NC(=O)[C@H]([C@@H](C)O)NC(=O)c5csc(n5)[C@]3(CC2)NC(=O)[C@H](C)NC(=O)C(=C)NC(=O)C(=C)NC(=O)[C@H](C(C)C)N[C@@H]2C=Cc3c([C@H](C)O)cc(nc3[C@H]2O)C(=O)O[C@@H]4C)n1)C(N)=O [NSC285116, siomycin A]	selectively inhibit AR activity	not C2C12 cells	–	–	–	–	–	–
C=C(NC(=O)C(=C)NC(=O)c1csc(C2=N[C@@H]3c4csc(n4)[C@H]4NC(=O)c5csc(n5)[C@H]([C@](C)(O)[C@@H](C)O)NC(=O)[C@H]5CSC(=N5)/C(=C/C)NC(=O)[C@H]([C@@H](C)O)NC(=O)c5csc(n5)[C@]3(CC2)NC(=O)[C@H](C)NC(=O)C(=C)NC(=O)[C@H](C)NC(=O)[C@H]([C@@H](C)CC)N[C@@H]2C=Cc3c([C@H](C)O)cc(nc3[C@H]2O)C(=O)O[C@@H]4C)n1)C(N)=O [thiostrepton]	most potent; also recorded: nanomolar potency; also recorded: selectively inhibit AR activity	not C2C12 cells	2.04	1.62	1.54	1.34	diminished the potency	inhibited AR activity
